Laboratory results reported in PMC3723632, “A Multi-targeted Drug Candidate with Dual Anti-HIV and Anti-HSV Activity” (PLoS Pathogens, 2013).
Converted amounts (≈) assume the structure as drawn. Where two headings read alike, the source gives them in different places.

Legend:
[1] = tested on: HSV-2 (G); assay: HSV-2 replication in human cervico-vaginal explants; format: cell-based; conditions: 1 µg/ml
Procedure: Figure 6 Suppression of HSV-2 in human cervico-vaginal tissues by adefovir and PMEO-DAPym. Blocks of human cervico-vaginal tissues were inoculated ex vivo with HSV-2 (G) or co-infected with HIV-1 and HSV-2 and treated or not with adefovir (1 µg/ml) or PMEO-DAPym (1 µg/ml). We monitored HSV-2 (G) replication by measuring viral DNA accumulated in culture media at different times throughout the culture period. Presented is cumulative HSV-2 (G) replication, with data representing pooled viral release from 16 tissue blocks.
(§1) For cervico-vaginal tissue, 16 blocks were infected by immersion in HSV-2G-containing medium and maintained on the gelfoam rafts. Adefovir was added at the time of infection and replenished at each culture medium change. HSV replication was evaluated from the release of viral DNA into the culture medium as measured with quantitative real-time PCR [18]. We evaluated HIV-1 replication from the release of p24 capsid antigen using a bead-based assay.

[2] = tested on: HSV-1 or HSV-2; assay: Topical treatment of athymic nude mice inoculated with HSV-1 or HSV-2; format: in vivo; conditions: topical gel twice daily for 5 days, p<0.05
Procedure: Figure 8 Effects of adefovir and PMEO-DAPym on mortality in mice inoculated with HSV-1 or HSV-2. Groups of five nu/nu mice were inoculated with HSV-1 (panel A) or HSV-2 (panel B) on the lumbosacral area. Each cohort was then subjected to topical treatment twice daily for 5 consecutive days, starting on the day of viral infection. The placebo groups received a similar treatment with the test formulation without drug. Mortality was recorded over a period of 30 days. Animals were euthanized when more than 30% loss in body weight or development of paralysis occurred. We estimated survival rates according to the Kaplan-Meier method and compared them using the log-rank test (Mantel-Cox using GraphPad Prism).
Female adult NMRI athymic nude mice or hairless mice (weighing ∼20 g and approximately 4 weeks old) were scarified on the lumbosacral area over a surface of about 1 cm^2 with 5×10^3 PFU of HSV-1 (KOS) or 5×10^2 PFU of HSV-2 (G).
Formulations of adefovir and PMEO-DAPym (0.3% and 1%) in a gel (identical to that used in the CAPRISA 004 trial) were applied topically twice a day for a period of 5 days starting 1–2 h post infection. In each experiment, a group of animals was treated with a placebo formulation that contained exactly the same vehicle but without drug. […] Development of lesions and mortality were recorded over a 1-month period. […]

[3] = tested on: HSV-2 (G strain); assay: Pre-treatment of PHK cell cultures, HSV-2 infection (CPE)
Procedure: (§2) The HSV-induced cytopathic effect (CPE) was evaluated in HSV-infected HEL and PHK cultures as described [44], [48].

[4] = tested on: HIV-1 (LAI); assay: HIV-1 replication (p24) in coinfected human ex vivo lymphoid tissue; format: cell-based; conditions: lymphoid tissue coinfected with HIV-1 and HSV-2, 1 µg/ml
Procedure: Figure 7 Suppression of HSV-2 in single-infected and HIV-1 co-infected human ex vivo tonsillar tissue by adefovir and PMEO-DAPym. Panels A and B: Blocks of human tonsillar tissue from five different donors were co-inoculated ex vivo with HSV-2 (G) and HIV-1 (LAI) and treated or not with adefovir or PMEO-DAPym (1 µg/ml). For tissue from each donor, we monitored replication of both viruses by evaluating their accumulation in the culture media bathing 27 tissue blocks at different times throughout the culture. We evaluated HIV-1 replication by measuring p24gag and HSV-2 (G) replication by measuring HSV-2 viral DNA. Panel A: Presented are kinetics of HSV-2 (G) and HIV-1 (LAI) replication (insert). Each point represents the mean ± SEM of viral replication in tissues from five donors. Panel B: Presented are means ± SEM of cumulative HSV-2 (G) and HIV-1 (LAI) replication (insert). […]
as §1, with “Adefovir was added at the time of infection and replenished at each culture medium change.” left out

[5] = tested on: HSV-2 (G); assay: HSV-2 replication in human ex vivo tonsillar (lymphoid) tissue, viral DNA; format: cell-based; conditions: for HSV-2 DNA copies: human lymphoid tissue ex vivo; for EC99 (viral load reduced by 2 orders of magnitude): tonsilar tissue, RT-PCR assay
Text: Figure 5 Suppression of HSV-2 in infected human ex vivo tonsillar tissue by adefovir and PMEO-DAPym. Blocks of human tonsillar tissue were inoculated ex vivo with HSV-2 (G) and treated or not with adefovir or PMEO-DAPym. We monitored HSV-2 (G) replication by measuring viral DNA in culture media at different times throughout the culture period. Presented are means ± SEM of cumulative HSV-2 (G) replication in tissues from two to six donors. For each donor, data represent pooled viral release from 27 tissue blocks.
Figure 7 Suppression of HSV-2 in single-infected and HIV-1 co-infected human ex vivo tonsillar tissue by adefovir and PMEO-DAPym. Panels A and B: Blocks of human tonsillar tissue from five different donors were co-inoculated ex vivo with HSV-2 (G) and HIV-1 (LAI) and treated or not with adefovir or PMEO-DAPym (1 µg/ml). For tissue from each donor, we monitored replication of both viruses by evaluating their accumulation in the culture media bathing 27 tissue blocks at different times throughout the culture. We evaluated HIV-1 replication by measuring p24gag and HSV-2 (G) replication by measuring HSV-2 viral DNA. Panel A: Presented are kinetics of HSV-2 (G) and HIV-1 (LAI) replication (insert). Each point represents the mean ± SEM of viral replication in tissues from five donors. Panel B: Presented are means ± SEM of cumulative HSV-2 (G) and HIV-1 (LAI) replication (insert).
Human tonsillar tissues were obtained from patients undergoing routine tonsillectomy at the Children's National Medical Center (Washington, DC) under IRB-approved protocol. Cervical tissues were obtained through the National Disease Research Interchange (NDRI, Philadelphia, PA). Tissues were dissected into blocks of about 2×2×2 mm and placed onto collagen sponge gels in culture medium at the air-liquid interface as described earlier. For tonsillar tissue for each experimental condition, 27 tissue blocks (9 blocks/well filled with 3 ml of medium) were inoculated with HSV-1 (strain F) or HSV-2 (strains G and MS). In coinfection experiments, tissue blocks were sequentially infected with HSV-2 (G) and HIV-1 (IIIB) (obtained from the Rush University Virology Quality Assurance Laboratory, Chicago, IL). Drugs (adefovir and PMEO-DAPym) were added to the culture medium 12 h prior to viral infection and replenished at each culture medium change.
as §1

[6] = tested on: HSV-1 (KOS strain); assay: Pre-treatment of PHK cell cultures, HSV-1 infection (CPE)
Procedure: as §2

[7] = Human alphaherpesvirus 2, read-out: 50% effective concentration, PHK, HSV-2 G, +2 h to 72 h (control, drug present whole incubation)
[8] = Human alphaherpesvirus 2, read-out: 50% effective concentration, PHK, HSV-2 G, pretreatment −2.5 h to 0 h
[9] = Human alphaherpesvirus 2, read-out: 50% effective concentration, PHK, HSV-2 G, pretreatment −6 h to 0 h
[10] = Human alphaherpesvirus 2, read-out: 50% effective concentration, PHK, HSV-2 G, pretreatment −18 h to 0 h
[11] = Human alphaherpesvirus 1, read-out: 50% effective concentration, PHK, HSV-1 KOS, +2 h to 72 h (control, drug present whole incubation)
[12] = Human alphaherpesvirus 1, read-out: 50% effective concentration, PHK, HSV-1 KOS, pretreatment −2.5 h to 0 h
[13] = Human alphaherpesvirus 1, read-out: 50% effective concentration, PHK, HSV-1 KOS, pretreatment −6 h to 0 h
[14] = Human alphaherpesvirus 1, read-out: 50% effective concentration, PHK, HSV-1 KOS, pretreatment −18 h to 0 h

SMILES	inhibition of HSV-2 infection [1]	virus-related morbidity and survival [2]	EC50 [3, 7] [µg/mL]	EC50 [3, 8] [µg/mL]	EC50 [3, 9] [µg/mL]	EC50 [3, 10] [µg/mL]	HIV-1 inhibition [4]	inhibition at 0.3 µg/mL ([5]; Human alphaherpesvirus 2, human lymphoid tissue ex vivo, 0.3 µg/mL, read-out: Inhibition of viral replication (% to control)) [%]	inhibition at 3 µg/mL ([5]; Human alphaherpesvirus 2, human lymphoid tissue ex vivo, 3 µg/mL, read-out: Inhibition of viral replication (% to control)) [%]	HSV-2 DNA copies ([5]; 0.3 µg/mL)	HSV-2 DNA copies ([5]; 3 µg/mL)	EC99 (viral load reduced by 2 orders of magnitude) [5] [µg/mL]	EC50 [6, 11] [µg/mL]	EC50 [6, 12] [µg/mL]	EC50 [6, 13] [µg/mL]	EC50 [6, 14] [µg/mL]
Nc1cc(OCCOCP(=O)(O)O)nc(N)n1 [PMEO-DAPym, 6-phosphonylmethoxyethoxy-2,4-diaminopyrimidine]	markedly inhibited	significantly delayed virus-related morbidity and prolonged the survival of the mice	3.5 ± 1.1 (≈ 13.2 µM)	31.6 (≈ 120 µM)	12.6 (≈ 47.7 µM)	8.7 ± 1.8 (≈ 32.9 µM)	2 orders of magnitude	52.8	> 99	5.76 e+7 copies	8.08 e+5 copies	2	2.6 ± 0.8 (≈ 9.84 µM)	31.6 (≈ 120 µM)	29.6 (≈ 112 µM)	7 ± 0.6 (≈ 26.5 µM)
Nc1ncnc2c1ncn2CCOCP(=O)(O)O [Adefovir, 9-(2-phosphonylmethoxyethyl)adenine]	markedly inhibited	significantly delayed virus-related morbidity and prolonged the survival of the mice	9.2 ± 6 (≈ 33.7 µM)	20 (≈ 73.2 µM)	11.9 (≈ 43.6 µM)	13.3 ± 2.6 (≈ 48.7 µM)	2 orders of magnitude					5	5.1 ± 1.7 (≈ 18.7 µM)	30 (≈ 110 µM)	23.3 (≈ 85.3 µM)	8.2 ± 1.6 (≈ 30 µM)
